Assay results from publication PMC9975698, “Hyperoside alleviates toxicity of β-amyloid via endoplasmic reticulum-mitochondrial calcium signal transduction cascade in APP/PS1 double transgenic Alzheimer's disease mice” (Redox Biology, 2023).

Assays:
Format in all cases: cell-based
[1] = tested on: HT22 cells; assay: Mitochondrial membrane potential by JC-1; conditions: CCCP positive control
Source text: The mitochondrial membrane potential of HT22 stained with 5,5′,6,6′-tetrachloro-1,1′,3,3′-tetraethylbenzimidazolyl cobalt iodide (JC-1) was observed by laser scanning confocal microscopy.

[2] = tested on: HT22 cells; assay: Cytotoxicity (MTT) assay; conditions: aggregated Aβ 30 μM
Protocol: Cytotoxicity was assessed using the MTT (5.0 mg/mL) assay. 4 × 10^3 HT22 cells per well were seeded in 96-well plates. After overnight incubation, cells were treated with Aβ aggregates (30 μM) for 48 h with or without the presence of HYP (20–80 μM). Cells were treated with DMSO as a control. Subsequently, MTT (10 μL) was added to each well for 4 h, followed by the addition of 100 μL of lysis buffer (10% SDS in 0.01 mol/L hydrochloric acid) and overnight incubation. The absorbance was measured at 570 nm the next day. The formula was calculated as a percentage of cell viability: Cell viability (%) = A (treatded) / A (control) × 100%. Data were obtained from three independent experiments in triplicate.

[3] = tested on: HT22 cells; assay: Fluo-3 detection of calcium ion concentration; conditions: after addition of Aβ
Protocol: 2 × 10^5 HT22 cells were incubated in 35 mm confocal dishes for 24 h at 37 °C in a CO^2 incubator. A 5 mM Fluo-3 AM stock solution was diluted with Hanks-Balanced Salt Solution (HBSS) to a 5 μM working solution and then added to the cells for 30 min at 37 °C. HT22 cells were washed three times with HEPES-buffered saline and then incubated in an imaging chamber at 37 °C for an additional 10 min. After the addition of 30 μM of Aβ aggregates in HBSS buffer, changes in cellular Ca^2+ levels were monitored by epifluorescence microscopy (Applied Precision DeltaVision Elite, Applied Precision, Inc., United States) using the real-time mode for tracking Fluo-3 changes for 5 min. The data inspection program provided by DeltaVision software was used to measure the intensity of Fluo-3 fluorescence.

[4] = tested on: HT22 cells; assay: Cytoplasmic calcium dynamics (FLIPR Calcium 6); conditions: HT22 cells, TG or Aβ 30 μM
Protocol: Intracellular Ca^2+ dynamics were determined using the FLIPR Calcium 6 Assay Kit (Molecular Devices) according to the manufacturer's instructions. Briefly, HT22 was housed at 4 × 10^4 cells per well in a black-walled and clear-bottom 96 multi-well plate (Costar, MA, USA) and treated with Calcium 6 reagent for 1 h.

[5] = tested on: HT22 cells; assay: Annexin V-PI detection by flow cytometry; conditions: BAPTA/AM co-treatment, annexin V-PI staining
Protocol: Apoptosis was detected with Annexin V staining kit (BD Biosciences, CA, USA). […] The number of apoptotic cells was quantified by flow cytometry (BD FACSAria III, CA, USA). Data acquisition and analysis were performed with CellQuest (BD Biosciences) from three independent experiments.

Carbonyl cyanide m-chlorophenyl hydrazine [CCCP, reference compound]
mitochondrial membrane potential (JC-1) [1]: loss of membrane potential

Aβ: Aβ (1–42) peptide incubated at 37 °C for 5 days to form Aβ aggregates [reference compound]
cell death by aggregated Aβ alone [2]: induced cell death in HT22 | Fluo-3 fluorescence intensity (Ca2+ level) [3]: significant increase of fluorescence intensity

C/C=C(/C)C(=O)O[C@H]1C(C)=C2[C@H]([C@@H]1OC(=O)CCCCCCC)[C@@](C)(OC(C)=O)C[C@H](OC(=O)CCC)[C@@]1(O)[C@H]2OC(=O)[C@@]1(C)O [TG, Thapsigargin, reference compound]
dynamic Ca2+ level, inducer alone [4]: prompt increase in Ca^2+ level

CC(=O)OCOC(=O)CN(CC(=O)OCOC(C)=O)c1ccccc1OCCOc1ccccc1N(CC(=O)OCOC(C)=O)CC(=O)OCOC(C)=O [BAPTA/AM]
percentage of Aβ-induced cell death [5]: decrease the percentage of Aβ-induced cell death
